Reference: patent US20120252729A1, “PTH-CONTAINING THERAPEUTIC/PROPHYLACTIC AGENT FOR OSTEOPOROSIS, CHARACTERIZED IN THAT PTH IS ADMINISTERED ONCE A WEEK IN A UNIT DOSE OF 100 TO 200 UNITS” (ASAHI KASEI PHARMA CORPORATION, priority 2009, published 2012)

Legend:
[1] = test system: patients having prednisone-induced osteoporosis complicated by arthralgia; conditions: daily administration; cited from earlier work
[2] = test system: nausea and vomiting associated with administration of the test drug; assay: Working Example 2: prescriptions for nausea and vomiting associated with administration of the test drug; conditions: given before test drug
From the text: The administration period and efficacy of various drugs to treat nausea and vomiting associated with administration of the test drug were studied.

[3] = PTH 20 μg/day; blood samples 4 to 6 hours after administration; cited from earlier work

Question: Which “Bone strengthening effect compared with Fosamax” value [1] does the source give for `CC[C@H](C)[C@H](NC(=O)[C@H](CCC(=O)O)NC(=O)[C@H](CO)NC(=O)[C@@H](NC(=O)[C@@H](N)CO)C(C)C)C(=O)N[C@@H](CCC(N)=O)C(=O)N[C@@H](CC(C)C)C(=O)N[C@@H](CCSC)C(=O)N[C@@H](Cc1cnc[nH]1)C(=O)N[C@@H](CC(N)=O)C(=O)N[C@@H](CC(C)C)C(=O)NCC(=O)N[C@@H](CCCCN)C(=O)N[C@@H](Cc1cnc[nH]1)C(=O)N[C@@H](CC(C)C)C(=O)N[C@@H](CC(N)=O)C(=O)N[C@@H](CO)C(=O)N[C@@H](CCSC)C(=O)N[C@@H](CCC(=O)O)C(=O)N[C@@H](CCCN=C(N)N)C(=O)N[C@H](C(=O)N[C@@H](CCC(=O)O)C(=O)N[C@@H](Cc1c[nH]c2ccccc12)C(=O)N[C@@H](CC(C)C)C(=O)N[C@@H](CCCN=C(N)N)C(=O)N[C@@H](CCCCN)C(=O)N[C@@H](CCCCN)C(=O)N[C@@H](CC(C)C)C(=O)N[C@@H](CCC(N)=O)C(=O)N[C@@H](CC(=O)O)C(=O)N[C@H](C(=O)N[C@@H](Cc1cnc[nH]1)C(=O)N[C@@H](CC(N)=O)C(=O)N[C@@H](Cc1ccccc1)C(=O)O)C(C)C)C(C)C` [Forteo, teriparatide (rDNA origin)] here?
Answer: stronger bone strengthening effect than Fosamax

Question: Which Effective or ineffective ([2]; event: nausea) does the source give for `O=c1[nH]c2ccccc2n1CCCN1CCC(n2c(=O)[nH]c3cc(Cl)ccc32)CC1` [Nauzelin, domperidone] here?
Answer: Effective

Question: What about the Effective or ineffective ([2]; event: vomiting) of the same molecule?
Answer: Effective

Question: For “PTH: PTH (parathyroid hormone) preparation given daily (20 μg/day) in cited osteoporosis trials”, which Patients with hypercalcemia [3] is on record?
Answer: 11%

Question: What about the “Patients with persistent hypercalcemia” value [3] of the same molecule?
Answer: 3%
